Values of other authors as cited in patent US11110072B2, “Broad spectrum pharmacological composition for treatment of various infections and diseases and methods of use” (Greyfer Innova Pharma, LLC, priority 2013, dated 2021).

Columns and labels:
[1] = after oral administration
[2] = even at high concentrations

excreted unchanged in urine [1]: less than 1%
Compound: O=C(O)CC(O)(CC(=O)O)C(=O)O [Citric acid, 2-hydroxytricarboxylic acid]
effect in contact with skin [2]: not injurious in contact with skin
